Test results from patent US20060217321A1, “Compositions to improve tic disorders” (priority 2005, published 2006).
Residues, ends and D or L forms follow the SMILES beside them.

Columns and labels:
tic disorders [1] = test: Test Case 3: a case with improved tic disorder; type: in vivo, human; conditions: patient; 0.8 g theanyl-theanine daily for 30 days
From the text: <Test Case 3> A Case with Improved Tic Disorder
Patient: child; height 121 cm; body weight 20 kg
Chief complaint: repetitive guttural
They were diagnosed as having tics.
The parent disciplined the child by scolding. They were pressed with child-rearing and housework and had little free time; thus, they were always nagging due to frustration. In July 1990, the patient developed involuntary movements of shaking their shoulders up and down, and in addition, repetitive guttural. In Sep. 6, 1990, the patient first visited the clinic. The affected child was thin with abdominal palpitation and spasms of the musculus rectus abdominis. Since October, the patient received 8 tablets combined with theanyl-theanine in example 5 (0.8 g theanyl-theanine) daily for 30 days.

tic disorders [2] = test: Test Case 1: a case with improved tic disorder; type: in vivo, human; conditions: for effect of earlier drug therapy on tic symptoms (history): patient history before theanine
From the text: <Test Case 1> A Case with Improved Tic Disorder
Patient: (Sixth grade elementary school student);
Chief complaint: shaking hands and head
History: Since being elected as temporary class representative of the fourth grade class of elementary school, the patient had blinking eyes and subsequently shook their face and shoulders; thus, they visited a nearby hospital and received diazepam. […] In the following year, around the time of moving to Osaka, the patient suffered a relapse of symptoms of shaking their face and shoulders again and thus visited the pediatric department of O hospital and received haloperidol.

Tourette's disorder = test: Test Case 2: a case with improved Tourette's disorder; type: in vivo, human
From the text: <Test Case 2> A Case with Improved Tourette's Disorder
Patient: child; body weight: 43 kg
The tics were milder when they were in school or with others, and were more frequently observed in the presence of only their family. (in the third semester of the sixth grade), they visited our clinic worrying about bullying at their junior high school. […] In addition, the patient continuously moved their hands and legs and tended to be restlessly absent-mindedly hyperactive.
Psychosocial case history: The patient was always crying due to inherent sensitivity; thus, their parent felt anxious about child-rearing. They were severely afraid of strangers and timid, and often cried for fear. […] They often cut into others' conversation and was too talkative. Their parent can get along with their younger sibling casually, but is feeling awkwardness and pain with the patient due to the lack of closeness. Their parent is not nagging so much, and seems to accept the patient. Clinical course: The patient was diagnosed as having Tourette's disorder, and the disease was explained to their parents. To alleviate the symptoms, haloperidol (trade name: Serenase (trademark); Dainippon Pharmaceutical Co. Ltd.) was used.
The administration of theanine is scheduled to be continued until the end of puberty. The patient has joined their junior high school track club, and has tics, although unnoticeable. The patient has become a bit disobedient and often falls silent, but is highly motivated with study.

mice = type: in vivo; conditions: oral administration of 5 g/kg

For `CCNC(=O)CC[C@H](NC(=O)[C@@H](N)CCC(=O)NCC)C(=O)O` [theanyl-theanine] (H-Glu(NHEt)-Glu(NHEt)-OH), the adverse effects (tic disorders [1]) was “no adverse effects”.
For `O=C(CCCN1CCC(O)(c2ccc(Cl)cc2)CC1)c1ccc(F)cc1` [haloperidol], the “adverse effects of earlier drug therapy (history)” value (tic disorders [2]; patient, increased dosage, patient history) was “speech defect”, the “effect of earlier drug therapy on tic symptoms (history)” value (tic disorders [2]; patient) was “insufficient effect” and the “adverse effects of earlier drug therapy” value (Tourette's disorder; patient, 0.25 mg to 0.5 mg) was “drowsiness was caused as an adverse effect”. For the same compound, the “symptoms of Tourette's disorder under earlier drug therapy” value (Tourette's disorder; patient, dosage gradually increased from 0.25 mg to 0.5 mg) was “alleviated the symptoms such as tics and restlessness”.
`CN1C(=O)CN=C(c2ccccc2)c2cc(Cl)ccc21` [diazepam] was tested, and the “effect of earlier drug therapy on tic symptoms (history)” value (tic disorders [2]; patient) was “no effect”.
For `CCNC(=O)CC[C@H](N)C(=O)O` [theanine, L-theanine], the “death or abnormality in general conditions and body weight” value (mice) was “neither death nor abnormality in general conditions and body weight was observed”, the adverse effects (tic disorders [2]; in vivo) was “no adverse effects” and the adverse effects (Tourette's disorder; in vivo) was “no adverse effects”.
